From patent US6214821A, “Methods and composition for the inhibition of cancer cells” (Washington State University Research Foundation, priority 1999, dated 2001)
Where two headings read alike, the source gives them in different places.

Legend:
[1] = UCN-01 pharmacokinetics in rats, effect of human AGP; format: in vivo, male Wistar rats; details: for half-life / clearance / Vd: 10 mg/kg; for half-life: range over the two groups (without and with 10 mg human AGP); for clearance: read-out: total body clearance (converted); for Vd: read-out: volume of distribution during the elimination phase
Description: Many basic drugs tend to bind in variable degrees to AGP (Knowlton, K. et al., "Bcl-2 slows in vitro breast cancer growth despite its antiapoptotic effect," J. Surg. Res. 76:22-26 (1998)). […] Thus monitoring changes in the pharmacokinetic drug concentrations in these pathological conditions is extremely important, since dosage adjustment would be considered. For our drug combination, this binding is of a crucial consequence since the attainable plasma and tumor concentrations may be questionable and plasma protein displacement interaction may occur and can lead to undesirable side effects. Thus the role of human α1 -acid glycoprotein (AGP) binding on UCN-01 disposition was determined. In this example, two groups of rats were prepared by cannulating the femoral vein and artery. The first group (n=6) received UCN-01 (10 mg/kg i.v.) by slow infusion over 1 min., while the second group (n=5) received UCN-01+10 mg human α1 -acid glycoprotein. Plasma samples were obtained over time (0-700 min), and were analyzed for UCN-01 by HPLC system (Shimazdu LC), detecting peaks using fluorescence detector (excitation=310 nm, emission=410).

[2] = Tissue distribution of UCN-01 in rats, effect of human AGP; format: in vivo, male Wistar rats; details: rat, iv, 10 mg/kg
Protocol: The role of human AGP binding on the tissue distribution of UCN-01. In this study, two groups of rats (n=3) were infused with bolus injection of either UCN-01 (10 mg/kg) or UCN-01+ human AGP (10 mg/kg +10 mg). On hour following drug administration, plasma samples as well as organ tissues (brain, muscle, kidneys, lungs, liver, heart and spleen) were collected. Tissues were digested and homogenized, protein was precipitated with cold ethanol/1% ascorbic acid, and the supernatant was extracted with chloroform. The organic phase was then dried under nitrogen, reconstituted in acetonitrile and analyzed by HPLC as mentioned above.

[3] = 72- or 3-h infusion, NCI Phase I; cited from earlier work
[4] = system: normal bovine venular endothelial cells (BVEC)
Protocol: Cell lines and Culture. […] Normal bovine venular endothelial cells (BVEC) were maintained in DMEM media (Gibco) supplemented with 1 mM sodium pyrovate (Gibco), and 20% bovine calf serum (Hyclone). Cell viability was determined using the trypan blue exclusion test. To ensure an exponential growth, cells were plated in fresh medium 24 h before each treatment.
Drug Treatment and Survival Curves. Cytotoxicity studies were initiated by plating 2×10^4 cells obtained from exponentially growing cultures in 24-well tissue culture plates (Coming-Costar, Cambridge Mass.) in the appropriate medium. Following 24 h incubation at 37° C., drugs were added to quadruplicate wells and incubated for 24 h, the wells were washed twice with prewarmed phosphate-buffered saline (PBS) and then incubated with drug-free medium for 2-3 doubling times.

[5] = system: α1 -acid glycoprotein (AGP); details: cited from earlier work
[6] = system: MDA-231 (mutant p53); test: Crystal violet staining growth inhibition assay, median effect analysis; details: Homo sapiens, MDA-MB-231, 24 h, read-out: IC50 MDA-231 (p53-)
[7] = system: GI 101A cells; test: cells; format: cell-based, human
Description: (§1) . Cell lines and Culture.
(§2) Drugs and Chemical Reagents. […] . […] All other chemicals were reagent grade.
(§3) Drug Treatment and Survival Curves.
(§4) Pharmacol. 28:370-376 (1991). […] .
(§5) Drug Combinations and Data Analysis. […] . Pharmacol. (in press, 1997). […] Enzyme Regul. […] Enzyme Regul. 22:27-55 (1984).
(§6) . […] Enzyme Regul. 22:27-55 (1984).

[8] = system: MDA-231 cells; test: cells; format: cell-based, human
Description: as §1, §2, §3, §4, §5, §6

[9] = system: HMEC/E6 (p53-); test: Crystal violet staining growth inhibition assay, median effect analysis; format: cell-based; details: Homo sapiens, 24 hr treatment
Description: Cytotoxicity and Bromodeoxyuridine incorporation assays. […] Enzyme Regul.

[10] = Death of animals injected with UCN-01; details: i.m., doses higher than 5 mg/kg
[11] = system: HMEC (p53+); test: Crystal violet staining growth inhibition assay, median effect analysis; details: Homo sapiens, 24 h, read-out: IC50 HMEC (p53+)
[12] = rat, plasma, iv, UCN-01 10 mg/kg i.v. + 10 mg human AGP
[13] = rat, plasma, iv, UCN-01 10 mg/kg i.v. alone

## CN[C@@H]1C[C@H]2O[C@@](C)([C@@H]1OC)n1c3ccccc3c3c4c(c5c6ccccc6n2c5c31)C(=O)N[C@@H]4O [UCN-01, 7-hydroxystaurosporine]
[1]; 10 mg/kg i.v., presence of human AGP
  duration of peak plasma concentration >100 nM: up to 300 min
[1]; rat, plasma, iv, 10 mg/kg i.v., read-out: t1/2α
  half-life: 0.183 to 0.85 h
[1]; rat, plasma, iv, 10 mg/kg i.v., read-out: t1/2β
  half-life: 6.65 to 6.95 h
[1]; [12]
  clearance: 1.5 mL/min
  Vd: 1.7 L/kg
[1]; [13]
  clearance: 4.33 mL/min
  Vd: 6.8 L/kg
[1]; rat, plasma, iv, 10 mg/kg i.v., presence of human AGP, read-out: peak plasma concentration
  Cmax: > 100 nM
[2]; all tissues, UCN-01, 1 h, read-out: tissue:plasma ratios, all tissues
  Kp at 1 h: 10 to 1190
[2]; brain, brain, UCN-01 10 mg/kg alone, 1 h, read-out: tissue concentration
  concentration at 1 h: 2450 ± 495 ng/g
[2]; brain, brain, UCN-01 + human AGP, 1 h, read-out: Tissue/Plasma ratio
  Kp at 1 h: 0.6 ± 0.33
[2]; brain, brain, UCN-01 + human AGP, 1 h, read-out: tissue concentration
  concentration at 1 h: 1720 ± 78.4 ng/g
[2]; brain, brain, UCN-01 alone, 1 h, read-out: Tissue/Plasma ratio
  Kp at 1 h: 10.5 ± 1.9
[2]; heart, heart, UCN-01 10 mg/kg alone, 1 h, read-out: tissue concentration
  concentration at 1 h: 19900 ± 9940 ng/g
[2]; heart, heart, UCN-01 + human AGP, 1 h, read-out: Tissue/Plasma ratio
  Kp at 1 h: 3.5 ± 1.7
[2]; heart, heart, UCN-01 + human AGP, 1 h, read-out: tissue concentration
  concentration at 1 h: 10100 ± 4900 ng/g
[2]; heart, heart, UCN-01 alone, 1 h, read-out: Tissue/Plasma ratio
  Kp at 1 h: 86.8 ± 41.7
[2]; kidney, kidney, UCN-01 10 mg/kg alone, 1 h, read-out: tissue concentration
  concentration at 1 h: 73200 ± 3050 ng/g
[2]; kidney, kidney, UCN-01 + human AGP, 1 h, read-out: Tissue/Plasma ratio
  Kp at 1 h: 14 ± 5.6
[2]; kidney, kidney, UCN-01 + human AGP, 1 h, read-out: tissue concentration
  concentration at 1 h: 39400 ± 8510 ng/g
[2]; kidney, kidney, UCN-01 alone, 1 h, read-out: Tissue/Plasma ratio
  Kp at 1 h: 298 ± 40
[2]; liver, liver, UCN-01 10 mg/kg alone, 1 h, read-out: tissue concentration
  concentration at 1 h: 42900 ± 3210 ng/g
[2]; liver, liver, UCN-01 + human AGP, 1 h, read-out: Tissue/Plasma ratio
  Kp at 1 h: 11.3 ± 1.34
[2]; liver, liver, UCN-01 + human AGP, 1 h, read-out: tissue concentration
  concentration at 1 h: 30100 ± 2530 ng/g
[2]; liver, liver, UCN-01 alone, 1 h, read-out: Tissue/Plasma ratio
  Kp at 1 h: 189 ± 131
[2]; lung, lung, UCN-01 10 mg/kg alone, 1 h, read-out: tissue concentration
  concentration at 1 h: 279000 ± 19600 ng/g
[2]; lung, lung, UCN-01 + human AGP, 1 h, read-out: Tissue/Plasma ratio
  Kp at 1 h: 53.6
[2]; lung, lung, UCN-01 + human AGP, 1 h, read-out: tissue concentration
  concentration at 1 h: 141000 ± 12000 ng/g
[2]; lung, lung, UCN-01 alone, 1 h, read-out: Tissue/Plasma ratio
  Kp at 1 h: 1190 ± 775
[2]; muscle, muscle, UCN-01 10 mg/kg alone, 1 h, read-out: tissue concentration
  concentration at 1 h: 11900 ± 783 ng/g
[2]; muscle, muscle, UCN-01 + human AGP, 1 h, read-out: Tissue/Plasma ratio
  Kp at 1 h: 2.27 ± 1.11
[2]; muscle, muscle, UCN-01 + human AGP, 1 h, read-out: tissue concentration
  concentration at 1 h: 6590 ± 3060 ng/g
[2]; muscle, muscle, UCN-01 alone, 1 h, read-out: Tissue/Plasma ratio
  Kp at 1 h: 60 ± 5.48
[2]; plasma, plasma, UCN-01 10 mg/kg + human AGP 10 mg, 1 h, mean ± SD, n=3, read-out: plasma concentration
  concentration at 1 h: 2960 ± 250 ng/mL
[2]; plasma, plasma, UCN-01 10 mg/kg alone, 1 h, mean ± SD, n=3, read-out: plasma concentration
  concentration at 1 h: 240 ± 35 ng/mL
[2]; spleen, spleen, UCN-01 10 mg/kg alone, 1 h, read-out: tissue concentration
  concentration at 1 h: 74900 ± 5170 ng/g
[2]; spleen, spleen, UCN-01 + human AGP, 1 h, read-out: Tissue/Plasma ratio
  Kp at 1 h: 19.6 ± 14.7
[2]; spleen, spleen, UCN-01 + human AGP, 1 h, read-out: tissue concentration
  concentration at 1 h: 53300 ± 3120 ng/g
[2]; spleen, spleen, UCN-01 alone, 1 h, read-out: Tissue/Plasma ratio
  Kp at 1 h: 326 ± 208
[3]
  distribution volume: small distribution volume
  half-life: long half-life
  plasma concentrations: high plasma concentrations
  systemic clearance: Extremely low systemic clearance
[4]
  enhancement of CPT-induced cytotoxicity: no enhancement of CPT-induced cytotoxicity
[5]
  binding to α1-acid glycoprotein: high affinity binding
[6]
  IC50: 49.6 nM
[7]
  enhancement of CPT cytotoxicity: about 30 fold
[8]
  enhancement of CPT cytotoxicity: ~40 fold
[9]
  IC50: 1.4 nM
[10]
  death of animals: Death of animals injected with doses higher than 5 mg/kg was observed
[11]
  IC50: 0.07 nM
